This is an account of results in patent US8993756B2 (Merck Sharp & Dohme Corp., priority 2011, dated 2015).

The target of one test is JAK3 (Homo sapiens (Human), UniProt P52333). Nature of the test: Jak Biochemical HTRF Assay (JAK3). The conditions noted are these: recombinant GST-tagged catalytic domain, [ATP] 2.9 μM.
For the next test, the target named is JAK2 (Homo sapiens (Human), UniProt O60674). The experiment in a line: Jak Biochemical HTRF Assay (JAK2). The conditions noted are these: recombinant GST-tagged catalytic domain, [ATP] 8.5 μM.

The structures appear in SMILES notation.

JAK3, sequence (P52333 822-1111): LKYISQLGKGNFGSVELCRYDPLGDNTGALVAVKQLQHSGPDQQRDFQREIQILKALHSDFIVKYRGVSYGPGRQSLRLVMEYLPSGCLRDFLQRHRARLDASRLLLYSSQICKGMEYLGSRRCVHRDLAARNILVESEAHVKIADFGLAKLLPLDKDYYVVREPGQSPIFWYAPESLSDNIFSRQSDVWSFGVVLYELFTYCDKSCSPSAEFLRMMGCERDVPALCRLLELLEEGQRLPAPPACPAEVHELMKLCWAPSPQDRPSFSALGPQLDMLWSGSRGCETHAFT
JAK2, sequence (O60674 849-1124): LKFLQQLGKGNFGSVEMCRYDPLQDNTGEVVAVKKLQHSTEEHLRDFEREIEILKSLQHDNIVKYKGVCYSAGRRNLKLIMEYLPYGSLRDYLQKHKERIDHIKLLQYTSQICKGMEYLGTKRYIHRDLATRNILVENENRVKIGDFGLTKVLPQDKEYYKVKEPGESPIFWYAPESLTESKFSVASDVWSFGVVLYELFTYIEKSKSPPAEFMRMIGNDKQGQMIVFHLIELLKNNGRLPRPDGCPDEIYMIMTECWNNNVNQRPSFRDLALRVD

On to `C=C(C)C(=O)Nc1cccc(-c2ncnc3[nH]cc(C4=CCOCC4)c23)c1` [Example 21-5, N-(3-(5-(3,6-dihydro-2H-pyran-4-yl)-7H-pyrrolo[2,3-d]pyrimidin-4-yl)phenyl)methacrylamide], for which the IC50 on JAK3 was 5 nM; on JAK2, greater than 1500 nM.

Take `C=C(C)C(=O)Nc1cccc(-c2ncnc3[nH]cc(-c4cnc(C)s4)c23)c1` [Example 21-6, N-(3-(5-(2-methylthiazol-5-yl)-7H-pyrrolo[2,3-d]pyrimidin-4-yl)phenyl)methacrylamide]: the figures for the IC50 on JAK3 and at JAK2 were 10.3 nM and greater than 1500 nM, respectively.

As for `C=C(C)C(=O)Nc1cccc(-c2ncnc3[nH]cc(-c4cncs4)c23)c1` [Example 21-7, N-(3-(5-(thiazol-5-yl)-7H-pyrrolo[2,3-d]pyrimidin-4-yl)phenyl)methacrylamide], the IC50 at JAK3 was 1.8 nM; at JAK2, greater than 500 nM.

For the compound `C=C(C)C(=O)Nc1cccc(-c2ncnc3[nH]cc(-c4ncco4)c23)c1` [Example 22, N-(3-(5-(Oxazol-2-yl)-7H-pyrrolo[2,3-d]pyrimidin-4-yl)phenyl)methacrylamide], the IC50 at JAK3 is 8 nM; on JAK2, greater than 1500 nM.

In the case of `C=C(C)C(=O)Nc1cccc(-c2ncnc3[nH]cc(C4CCOCC4)c23)c1` [Example 23, N-(3-(5-(Tetrahydro-2H-pyran-4-yl)-7H-pyrrolo[2,3-d]pyrimidin-4-yl)phenyl)methacrylamide], the figures for the IC50 at JAK3 and on JAK2 were 8.3 nM and greater than 1500 nM, respectively.

As for `C=C(C)C(=O)N(C)c1cccc(-c2ncnc3[nH]cc(C4CCOCC4)c23)c1` [Example 24, N-Methyl-N-(3-(5-(tetrahydro-2H-pyran-4-yl)-7H-pyrrolo[2,3-d]pyrimidin-4-yl)phenyl)methacrylamide], the IC50 at JAK3 (given as range class) and on JAK2 (given as range class) was greater than 500 nM in each case.

As for `C=C(C)C(=O)Nc1cccc(-c2ncnc3[nH]cc(C4CCCO4)c23)c1` (stereo not drawn) [Example 25, N-(3-(5-(Tetrahydrofuran-2-yl)-7H-pyrrolo[2,3-d]pyrimidin-4-yl)phenyl)methacrylamide], the results for the IC50 at JAK3 (given as range class) and at JAK2 (given as range class) were 10 to 500 nM and greater than 500 nM, respectively.

For the compound `C=C(C)C(=O)Nc1cccc(-c2ncnc3[nH]cc(-c4nnc(C)o4)c23)c1` [Example 26, N-(3-(5-(5-Methyl-1,3,4-oxadiazol-2-yl)-7H-pyrrolo[2,3-d]pyrimidin-4-yl)phenyl)methacrylamide], the IC50 at JAK3 is 2.5 nM; at JAK2 it was greater than 1500 nM.

With `C=C(C)C(=O)Nc1cccc(-c2ncnc3[nH]cc(-c4nnc(C)s4)c23)c1` [Example 27, N-(3-(5-(5-Methyl-1,3,4-thiadiazol-2-yl)-7H-pyrrolo[2,3-d]pyrimidin-4-yl)phenyl)methacrylamide], the values for the 50% inhibitory concentration (IC50) on JAK3 (given as range class) and at JAK2 (given as range class) were 10 to 500 nM and greater than 500 nM, respectively.

For the compound `C=C(C)C(=O)Nc1cccc(-c2ncnc3[nH]cc(C4=NCC(C)O4)c23)c1` (stereo not drawn) [Example 28, N-(3-(5-(5-Methyl-4,5-dihydrooxazol-2-yl)-7H-pyrrolo[2,3-d]pyrimidin-4-yl)phenyl)methacrylamide], the IC50 on JAK3 (given as range class) is 10 to 500 nM; on JAK2 (given as range class) it was greater than 500 nM.

With `C=C(C)C(=O)Nc1cccc(-c2ncnc3[nH]cc(-c4nc(C)co4)c23)c1` [Example 29, N-(3-(5-(4-Methyloxazol-2-yl)-7H-pyrrolo[2,3-d]pyrimidin-4-yl)phenyl)methacrylamide], the IC50 was 10 to 500 nM at JAK3 (given as range class) and greater than 500 nM on JAK2 (given as range class).

In the case of `C=C(C)C(=O)Nc1cccc(-c2ncnc3[nH]cc(-c4cnco4)c23)c1` [Example 30, N-(3-(5-(Oxazol-5-yl)-7H-pyrrolo[2,3-d]pyrimidin-4-yl)phenyl)methacrylamide], the IC50 is 5 nM at JAK3 and greater than 1500 nM at JAK2.

`C=C(C)C(=O)Nc1cccc(-c2ncnc3[nH]cc(-c4nccs4)c23)c1` [Example 31, N-(3-(5-(Thiazol-2-yl)-7H-pyrrolo[2,3-d]pyrimidin-4-yl)phenyl)methacrylamide]: the IC50 on JAK3 (given as range class) is 10 to 500 nM; at JAK2 (given as range class), greater than 500 nM.

`COc1ncccc1-c1c[nH]c2ncnc(-c3ccccc3)c12` [Example 32-1, 5-(2-Methoxypyridin-3-yl)-4-phenyl-7H-pyrrolo[2,3-d]pyrimidine]: the IC50 on JAK3 (given as range class) and at JAK2 (given as range class) was 10 to 500 nM in each case.

As to `COc1cccc(-c2c[nH]c3ncnc(-c4ccccc4)c23)c1` [Example 32-3, 5-(3-methoxyphenyl)-4-phenyl-7H-pyrrolo[2,3-d]pyrimidine], the IC50 is 3.1 nM on JAK3 and 93 nM on JAK2.

Turning to `c1ccc(Oc2cccc(-c3c[nH]c4ncnc(-c5ccccc5)c34)c2)cc1` [Example 32-4, 5-(3-phenoxyphenyl)-4-phenyl-7H-pyrrolo[2,3-d]pyrimidine], the values for the IC50 on JAK3 (given as range class) and at JAK2 (given as range class) were 10 to 500 nM and greater than 500 nM, respectively.

Regarding `c1ccc(COc2cccc(-c3c[nH]c4ncnc(-c5ccccc5)c34)c2)cc1` [Example 32-5, 5-[3-(benzyloxy)phenyl]-4-phenyl-7H-pyrrolo[2,3-d]pyrimidine], the IC50 on JAK3 (given as range class) was 10 to 500 nM; on JAK2 (given as range class) it was greater than 500 nM.

`c1ccc(Oc2ccccc2-c2c[nH]c3ncnc(-c4ccccc4)c23)cc1` [Example 32-6, 5-(2-phenoxyphenyl)-4-phenyl-7H-pyrrolo[2,3-d]pyrimidine]: the IC50 was 10 to 500 nM at JAK3 (given as range class) and greater than 500 nM at JAK2 (given as range class).

On to `COc1ccccc1-c1c[nH]c2ncnc(-c3ccccc3)c12` [Example 33-1, 5-(2-Methoxyphenyl)-4-phenyl-7H-pyrrolo[2,3-d]pyrimidine], for which the results for the IC50 at JAK3 and on JAK2 were 3.4 nM and 183 nM, respectively.

Turning to `COc1ccccc1-c1c[nH]c2ncnc(-c3ccc4cn(C)nc4c3)c12` [Example 33-2, 5-(2-methoxyphenyl)-4-(2-methyl-2H-indazol-6-yl)-7H-pyrrolo[2,3-d]pyrimidine], the IC50 at JAK3 is 6.9 nM; on JAK2, greater than 1500 nM.

Take `COc1ccc(F)cc1-c1c[nH]c2ncnc(-c3ccccc3)c12` [Example 33-3, 5-(5-fluoro-2-methoxyphenyl)-4-phenyl-7H-pyrrolo[2,3-d]pyrimidine]: the IC50 at JAK3 stood at 1.4 nM; on JAK2, 71 nM.

For the compound `COc1cccc(-c2ncnc3[nH]cc(-c4ccccc4OC)c23)c1` [Example 33-4, 5-(2-methoxphenyl)-4-(3-methoxyphenyl)-7H-pyrrolo[2,3-d]pyrimidine], the IC50 at JAK3 (given as range class) and on JAK2 (given as range class) was 10 to 500 nM throughout.

With `COc1ccccc1-c1c[nH]c2ncnc(-c3cccc(C(=O)N(C)C)c3)c12` [Example 33-5, 3-[5-(2-methoxyphenyl)-7H-pyrrolo[2,3-d]pyrimidin-4-yl]-N,N-dimethylbenzamide], the IC50 was 10 to 500 nM on JAK3 (given as range class) and greater than 500 nM at JAK2 (given as range class).

As to `COc1ccccc1-c1c[nH]c2ncnc(-c3cn[nH]c3)c12` [Example 33-6, 5-(2-methoxyphenyl)-4-(1H-pyrazol-4-yl)-7H-pyrrolo[2,3-d]pyrimidine], the IC50 on JAK3 (given as range class) and on JAK2 (given as range class) was 10 to 500 nM throughout.
